Assay results taken from patent publication US20240158446A1, “CYCLIC COMPOUND HAVING SELECTIVE INHIBITORY ACTION ON KRAS OVER HRAS AND NRAS” (CHUGAI SEIYAKU KABUSHIKI KAISHA, priority 2021, published 2024).
Where two headings read alike, the source gives them in different places.

Assays:
[1] = biological target: GDP-bound KRAS wild-type protein (Homo sapiens, UniProt P01116); assay: Binding to KRAS by surface plasmon resonance (SPR), Single Cycle Kinetics; details: SPR, Single Cycle Kinetics, GDP-bound KRAS wild-type protein, read-out: KRAS KD
[2] = biological target: GDP-bound NRAS wild-type protein (Homo sapiens, UniProt P01111); assay: Binding to NRAS by surface plasmon resonance (SPR), Single Cycle Kinetics; details: SPR; for NRAS/KRAS (ratio of KD value for NRAS to KD value for KRAS): GDP-bound NRAS wild-type protein vs GDP-bound KRAS wild-type protein; for NRAS/KRAS (KD ratio): ratio of KD for GDP-bound NRAS wild-type protein to KD for KRAS
[3] = biological target: GDP-bound HRAS wild-type protein (Homo sapiens, UniProt P01112); assay: Binding to HRAS by surface plasmon resonance (SPR), Single Cycle Kinetics; details: SPR; for HRAS/KRAS (ratio of KD value for HRAS to KD value for KRAS): GDP-bound HRAS wild-type protein vs GDP-bound KRAS wild-type protein; for HRAS/KRAS (KD ratio): ratio of KD for GDP-bound HRAS wild-type protein to KD for KRAS
GDP-bound HRAS wild-type protein, sequence (P01112 whole entry): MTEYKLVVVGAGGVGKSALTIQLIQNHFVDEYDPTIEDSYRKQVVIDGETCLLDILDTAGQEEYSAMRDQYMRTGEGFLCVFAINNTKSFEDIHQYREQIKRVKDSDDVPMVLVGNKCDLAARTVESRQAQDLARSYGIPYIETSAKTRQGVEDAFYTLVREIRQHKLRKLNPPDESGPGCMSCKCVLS

GDP-bound NRAS wild-type protein, sequence (P01111 whole entry): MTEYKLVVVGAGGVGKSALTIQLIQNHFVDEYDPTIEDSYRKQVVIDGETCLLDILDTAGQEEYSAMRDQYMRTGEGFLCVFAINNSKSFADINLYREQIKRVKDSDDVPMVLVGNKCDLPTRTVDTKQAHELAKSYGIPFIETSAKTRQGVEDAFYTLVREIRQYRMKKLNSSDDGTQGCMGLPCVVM
GDP-bound KRAS wild-type protein, sequence (P01116 whole entry): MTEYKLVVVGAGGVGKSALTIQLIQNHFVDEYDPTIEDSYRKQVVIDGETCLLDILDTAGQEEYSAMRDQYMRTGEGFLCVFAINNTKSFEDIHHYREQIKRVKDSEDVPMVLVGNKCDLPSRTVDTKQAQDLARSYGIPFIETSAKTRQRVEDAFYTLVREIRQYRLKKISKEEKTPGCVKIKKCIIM

| Compound | Kd ([1]; 1:1 binding model) | NRAS/KRAS (ratio of KD value for NRAS to KD value for KRAS) ([2]; KD ratio class) | HRAS/KRAS (ratio of KD value for HRAS to KD value for KRAS) ([3]; KD ratio class) | Kd [1] | NRAS/KRAS (KD ratio) [2] | HRAS/KRAS (KD ratio) [3] | NRAS/KRAS (ratio of KD value for NRAS to KD value for KRAS) [2] | HRAS/KRAS (ratio of KD value for HRAS to KD value for KRAS) [3] |
| --- | --- | --- | --- | --- | --- | --- | --- | --- |
| CCO[C@@H]1C[C@H]2C(=O)NC3(CC(C)(C)C3)C(=O)N(C)[C@@H](C3CCCC3)C(=O)N3CCC[C@@H]3CC(=O)N(C)[C@@H](CC)C(=O)N[C@@H]([C@@H](C)CC)C(=O)N(C)CC(=O)N(C)[C@H]3C/C=C\CCN(C3=O)[C@@H](Cc3ccc(C(F)(F)F)cc3)C(=O)N(C)CC(=O)N[C@@H](CCc3cc(F)c(C(F)(F)F)c(F)c3)C(=O)N2C1 [PP1606] | 0.37 nM | B (a compound having 3 or more and less than 10 is denoted as B) | B (a compound having 3 or more and less than 10 is denoted as B) | – | – | – | – | – |
| CCO[C@@H]1C[C@H]2C(=O)NC3(CC(C)(C)C3)C(=O)N(C)[C@@H](C3CCCC3)C(=O)N(C)[C@H](C(=O)N(C)C)CC(=O)N(C)[C@@H](CC(C)C)C(=O)N[C@@H]([C@@H](C)CC)C(=O)N(C)CC(=O)N(C)[C@H]3C/C=C\CCN(C3=O)[C@@H](Cc3ccc(C(F)(F)F)cc3)C(=O)N(C)CC(=O)N[C@@H](CCc3cc(F)c(C(F)(F)F)c(F)c3)C(=O)N2C1 [PP1650, (2S,8S,12R,14S,20S,23S,27S,30S,36S,38Z)-20-cyclopentyl-8-[2-[3,5-difluoro-4-(trifluoromethyl)phenyl]ethyl]-12-ethoxy-27-isobutyl-N,N,3′,3′,4,19,22,26,32,35-decamethyl-30-[(1S)-1-methylpropyl]-3,6,9,15,18,21,25,28,31,34,42-undecaoxo-2-[[4-(trifluoromethyl)phenyl]methyl]spiro[1,4,7,10,16,19,22,26,29,32,35-undecazatricyclo[34.5.1.0^10,14]dotetracont-38-ene-17,1′-cyclobutane]-23-carboxamide] | – | – | – | 0.057 nM | A (a compound having 10 or more and less than 20 is denoted as A) | A (a compound having 10 or more and less than 20 is denoted as A) | – | – |
| CCO[C@@H]1C[C@H]2C(=O)NC3(CC(C)(C)C3)C(=O)N(C)[C@@H](C3CCCC3)C(=O)N(C)[C@H](C(=O)N(C)CC)CC(=O)N(C)[C@H]3CCCC/C=C/c4ccc(cc4)C[C@@H](C(=O)N(C)CC(=O)N[C@@H](CCc4ccc(C(F)(F)F)c(OC)c4)C(=O)N2C1)N1CC/C=C\C[C@@H](C1=O)N(C)C(=O)CN(C)C(=O)[C@H]([C@@H](C)CC)NC3=O [PP1830, (1S,7S,11R,13S,19S,22S,26S,29S,35S,37Z,47E)-19-cyclopentyl-11-ethoxy-N-ethyl-7-[2-[3-methoxy-4-(trifluoromethyl)phenyl]ethyl]-N,3,3′,3′,18,21,25,31,34-nonamethyl-29-[(1S)-1-methylpropyl]-2,5,8,14,17,20,24,27,30,33,55-undecaoxo-spiro[3,6,9,15,18,21,25,28,31,34,41-undecazapentacyclo[24.15.11.2^43,46.1^35,41.0^9,13]pentapentaconta-37,43(54),44,46(53),47-pentaene-16,1′-cyclobutane]-22-carboxamide] | – | – | – | 0.054 nM | A (a compound having 10 or more and less than 20 is denoted as A) | B (a compound having 3 or more and less than 10 is denoted as B) | – | – |
| CCO[C@@H]1C[C@H]2C(=O)NC3(CC(C)(C)C3)C(=O)N(C)[C@@H](C3CCCC3)C(=O)N(C)[C@H](C(=O)N(C)C)CC(=O)N(C)[C@H]3CCCC/C=C/c4ccc(cc4)C[C@@H](C(=O)N(C)CC(=O)N[C@@H](CCc4cc(F)c(C(F)(F)F)c(F)c4)C(=O)N2C1)N1CC/C=C\C[C@@H](C1=O)N(C)C(=O)CN(C)C(=O)[C@H]([C@@H](C)CC)NC3=O [PP1831] | – | – | – | 0.025 nM | A (a compound having 10 or more and less than 20 is denoted as A) | A (a compound having 10 or more and less than 20 is denoted as A) | – | – |
| CCO[C@@H]1C[C@H]2C(=O)NC3(CC(C)(C)C3)C(=O)N(C)[C@@H](C3CCCC3)C(=O)N(C)[C@H](C(=O)N(C)C)CC(=O)N(C)[C@H]3CCCC/C=C/c4ccc(cc4)C[C@@H](C(=O)N(C)CC(=O)N[C@@H](CCc4ccc(C(F)(F)F)c(OC)c4)C(=O)N2C1)N1CC/C=C\C[C@@H](C1=O)N(C)C(=O)CN(C)C(=O)[C@H]([C@@H](C)CC)NC3=O [PP1832] | – | – | – | 0.04 nM | B (a compound having 3 or more and less than 10 is denoted as B) | B (a compound having 3 or more and less than 10 is denoted as B) | – | – |
| CCO[C@@H]1C[C@H]2C(=O)NC3(CCC3)C(=O)N(C)[C@@H](C3CCCC3)C(=O)N(C)[C@H](C(=O)N(C)CC)CC(=O)N(C)[C@H]3CCC/C=C/c4ccc(cc4)C[C@@H](C(=O)N(C)CC(=O)N[C@@H](CCc4ccc(C(F)(F)F)c(OC)c4)C(=O)N2C1)N1CC/C=C\C[C@@H](C1=O)N(C)C(=O)CN(C)C(=O)[C@H]([C@@H](C)CC)NC3=O [PP1834] | – | – | – | 0.065 nM | A (a compound having 10 or more and less than 20 is denoted as A) | B (a compound having 3 or more and less than 10 is denoted as B) | – | – |
| CCO[C@@H]1C[C@H]2C(=O)NC3(CC(C)(C)C3)C(=O)N(C)[C@@H](C3CCCC3)C(=O)N(C)[C@H](C(=O)N(C)CC)CC(=O)N(C)[C@H]3CCC/C=C/c4ccc(cc4)C[C@@H](C(=O)N(C)CC(=O)N[C@@H](CCc4cc(F)c(C(F)(F)F)c(F)c4)C(=O)N2C1)N1CC/C=C\C[C@@H](C1=O)N(C)C(=O)CN(C)C(=O)[C@H]([C@@H](C)CC)NC3=O [PP1835] | – | – | – | 0.051 nM | A (a compound having 10 or more and less than 20 is denoted as A) | B (a compound having 3 or more and less than 10 is denoted as B) | – | – |
| CCO[C@@H]1C[C@H]2C(=O)NC3(CC(C)(C)C3)C(=O)N(C)[C@@H](C3CCCC3)C(=O)N(C)[C@H](C(=O)N(C)CC)CC(=O)N(C)[C@@H](C(C)C)C(=O)N[C@@H]([C@@H](C)CC)C(=O)N(C)CC(=O)N(C)[C@H]3C/C=C\CCN(C3=O)[C@@H](Cc3ccc(C(F)(F)F)cc3)C(=O)N(C)CC(=O)N[C@@H](CCc3cc(F)c(C(F)(F)F)c(F)c3)C(=O)N2C1 [PP2034] | – | – | – | 0.19 nM | – | – | A (a compound having 10 or more and less than 20 is denoted as A) | A (a compound having 10 or more and less than 20 is denoted as A) |
| CCO[C@@H]1C[C@H]2C(=O)NC3(CC(C)(C)C3)C(=O)N(C)[C@@H](C3CCCC3)C(=O)N(C)[C@H](C(=O)N(C)CC)CC(=O)N(C)[C@@H](C3CC3)C(=O)N[C@@H]([C@@H](C)CC)C(=O)N(C)CC(=O)N(C)[C@H]3C/C=C\CCN(C3=O)[C@@H](Cc3ccc(C(F)(F)F)cc3)C(=O)N(C)CC(=O)N[C@@H](CCc3cc(F)c(C(F)(F)F)c(F)c3)C(=O)N2C1 [PP2036] | – | – | – | 0.089 nM | – | – | A (a compound having 10 or more and less than 20 is denoted as A) | A (a compound having 10 or more and less than 20 is denoted as A) |
| CCO[C@@H]1C[C@H]2C(=O)NC3(CC(C)(C)C3)C(=O)N(C)[C@@H](C3CCCC3)C(=O)N(C)[C@H](C(=O)N(C)CC)CC(=O)N(C)[C@@H](C3CCC3)C(=O)N[C@@H]([C@@H](C)CC)C(=O)N(C)CC(=O)N(C)[C@H]3C/C=C\CCN(C3=O)[C@@H](Cc3ccc(C(F)(F)F)cc3)C(=O)N(C)CC(=O)N[C@@H](CCc3cc(F)c(C(F)(F)F)c(F)c3)C(=O)N2C1 [PP2038] | – | – | – | 0.16 nM | – | – | A (a compound having 10 or more and less than 20 is denoted as A) | A (a compound having 10 or more and less than 20 is denoted as A) |
| CCCN(C)C(=O)[C@@H]1CC(=O)N(C)[C@@H](CC(F)F)C(=O)N[C@@H]([C@@H](C)CC)C(=O)N(C)CC(=O)N(C)[C@H]2C/C=C\CCN(C2=O)[C@@H](Cc2ccc(C(F)(F)F)cc2)C(=O)N(C)CC(=O)N[C@@H](CCc2cc(F)c(C(F)(F)F)c(F)c2)C(=O)N2C[C@@H](C)C[C@H]2C(=O)NC2(CC(C)(C)C2)C(=O)N(C)[C@@H](C2CCCC2)C(=O)N1C [PP2040] | – | – | – | 0.31 nM | – | – | A (a compound having 10 or more and less than 20 is denoted as A) | A (a compound having 10 or more and less than 20 is denoted as A) |
| CCCN(C)C(=O)[C@@H]1CC(=O)N(C)[C@@H](COCC)C(=O)N[C@@H]([C@@H](C)CC)C(=O)N(C)CC(=O)N(C)[C@H]2C/C=C\CCN(C2=O)[C@@H](Cc2ccc(C(F)(F)F)cc2)C(=O)N(C)CC(=O)N[C@@H](CCc2cc(F)c(C(F)(F)F)c(F)c2)C(=O)N2C[C@@H](C)C[C@H]2C(=O)NC2(CC(C)(C)C2)C(=O)N(C)[C@@H](C2CCCC2)C(=O)N1C [PP2041] | – | – | – | 0.19 nM | – | – | A (a compound having 10 or more and less than 20 is denoted as A) | A (a compound having 10 or more and less than 20 is denoted as A) |
